In general, inhibition refers to the drop in the measured response relative to a control, in per cent.

Molecules are shown by their SMILES.

From US9187471B2, “Pyrido [4,3-b] indole and pyrido [3,4-b] indole derivatives and methods of use” (Medivation Technologies, Inc., priority 2010, dated 2015) come the findings set out here.

The target of assay [1] is T1, rat adrenergic α1A receptor (Rattus norvegicus, UniProt P43140).
T1 construct: rat adrenergic α1A receptor obtained from Wistar Rat submaxillary glands; from tissue; host or cells: Wistar rat submaxillary glands
T1 sequence (P43140 1-466): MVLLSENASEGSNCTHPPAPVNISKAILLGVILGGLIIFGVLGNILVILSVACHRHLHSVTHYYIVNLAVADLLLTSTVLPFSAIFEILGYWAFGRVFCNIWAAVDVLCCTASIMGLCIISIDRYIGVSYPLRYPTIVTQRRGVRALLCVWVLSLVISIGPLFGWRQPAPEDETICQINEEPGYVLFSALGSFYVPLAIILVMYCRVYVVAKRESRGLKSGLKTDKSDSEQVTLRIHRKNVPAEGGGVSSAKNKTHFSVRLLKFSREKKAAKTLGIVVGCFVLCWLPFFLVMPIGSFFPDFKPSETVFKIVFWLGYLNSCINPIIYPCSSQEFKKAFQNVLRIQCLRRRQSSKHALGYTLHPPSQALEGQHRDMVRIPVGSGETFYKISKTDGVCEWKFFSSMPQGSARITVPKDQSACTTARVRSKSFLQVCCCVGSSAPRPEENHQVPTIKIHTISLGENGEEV
In words: Adrenergic α1A radioligand binding ([3H]Prazosin). The note with it: read-out: Adrenergic (0.1 μM) a1A, percent inhibition of specific binding; compound at 0.1 μM; 0.25 nM [3H]Prazosin. The method, boiled down: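 Wistar rat submaxillary gland receptor in 50 mM Tris-HCl pH 7.4 with 0.5 mM EDTA, incubated with compound and 0.25 nM [3H]Prazosin for 60 min at 25 °C.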

The target in assay [2] is T2, human recombinant histamine H1 receptor (Homo sapiens, UniProt P35367).
T2 construct: expressed in transfected cells; host or cells: CHO-K1
T2 sequence (P35367 whole entry): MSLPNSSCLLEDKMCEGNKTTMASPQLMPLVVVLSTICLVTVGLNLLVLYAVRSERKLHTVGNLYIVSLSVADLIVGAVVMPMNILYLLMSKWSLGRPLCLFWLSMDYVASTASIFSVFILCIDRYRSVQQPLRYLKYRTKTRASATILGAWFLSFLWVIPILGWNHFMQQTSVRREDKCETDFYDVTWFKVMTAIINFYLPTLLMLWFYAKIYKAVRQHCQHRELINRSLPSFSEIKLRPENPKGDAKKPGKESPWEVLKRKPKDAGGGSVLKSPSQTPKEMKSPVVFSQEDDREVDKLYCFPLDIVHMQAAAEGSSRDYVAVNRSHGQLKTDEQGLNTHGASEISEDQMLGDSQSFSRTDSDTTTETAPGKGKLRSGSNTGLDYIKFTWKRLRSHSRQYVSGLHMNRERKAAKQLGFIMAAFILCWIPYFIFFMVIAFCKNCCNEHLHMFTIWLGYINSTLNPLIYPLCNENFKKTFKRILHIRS
Description: Histamine H1 radioligand binding ([3H]Pyrilamine). The note with it: read-out: Histamine H1 Binding (1 μM), percent inhibition of specific binding; compound at 1 μM; 1.2 nM [3H]Pyrilamine. The method, boiled down:
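Results expressed as percent inhibition of specific [3H]pyrilamine binding, counted on filters after washing. Receptor source: CHO-K1 cells expressing recombinant human H1, in modified Tris-HCl buffer (50 mM, pH 7.4; 2 mM MgCl2, 100 mM NaCl, 250 mM sucrose). 1 μM pyrilamine defined non-specific binding.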

Assay [3] concerns the target T3, human recombinant serotonin (5-Hydroxytryptamine) 5-HT2A receptor (Homo sapiens, UniProt P28223).
T3 construct: expressed in transfected cells; host or cells: CHO-K1
In words: Serotonin 5-HT2A radioligand binding ([3H]Ketanserin). The note with it: compound at 0.1 μM; read-out: Inhibition of ligand binding, Serotonin 5-HT2A (percent inhibition of specific binding). The protocol:
Compounds of the invention were incubated with 0.5 nM [^3H]Ketanserin for 60 min at 25° C. Non-specific binding was estimated in the presence of 1 μM Mianserin. Receptor proteins were filtered and washed, the filters were then counted to determine [^3H]Ketanserin specifically bound.

For assay [4], the target named is T4, human recombinant serotonin (5-Hydroxytryptamine) 5-HT6 receptor (Homo sapiens, UniProt P50406).
T4 construct: expressed in transfected cells; host or cells: HeLa
T4 sequence (P50406 whole entry): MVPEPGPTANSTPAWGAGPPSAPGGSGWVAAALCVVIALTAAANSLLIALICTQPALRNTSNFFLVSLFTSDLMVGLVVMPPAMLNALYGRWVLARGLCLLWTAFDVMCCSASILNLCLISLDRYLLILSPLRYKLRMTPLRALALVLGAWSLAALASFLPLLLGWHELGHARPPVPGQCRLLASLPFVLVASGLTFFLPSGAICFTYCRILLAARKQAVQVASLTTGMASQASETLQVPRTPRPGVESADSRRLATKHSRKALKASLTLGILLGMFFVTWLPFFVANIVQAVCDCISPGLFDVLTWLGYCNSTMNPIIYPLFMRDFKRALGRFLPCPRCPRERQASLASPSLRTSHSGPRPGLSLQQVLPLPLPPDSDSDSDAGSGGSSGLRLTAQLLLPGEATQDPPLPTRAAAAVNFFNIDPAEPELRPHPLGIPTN
Description: Serotonin 5-HT6 radioligand binding ([3H]LSD). The note with it: compound at 0.1 μM; read-out: Inhibition of ligand binding, Serotonin 5-HT6 (percent inhibition of specific binding). From the text:
Receptor proteins were filtered and washed, the filters were then counted to determine [3H]LSD specifically bound.

For assay [5], the target named is T5, human recombinant serotonin (5-Hydroxytryptamine) 5-HT5A receptor (Homo sapiens, UniProt P47898).
T5 construct: expressed in transfected cells; host or cells: CHO-K1
T5 sequence (P47898 whole entry): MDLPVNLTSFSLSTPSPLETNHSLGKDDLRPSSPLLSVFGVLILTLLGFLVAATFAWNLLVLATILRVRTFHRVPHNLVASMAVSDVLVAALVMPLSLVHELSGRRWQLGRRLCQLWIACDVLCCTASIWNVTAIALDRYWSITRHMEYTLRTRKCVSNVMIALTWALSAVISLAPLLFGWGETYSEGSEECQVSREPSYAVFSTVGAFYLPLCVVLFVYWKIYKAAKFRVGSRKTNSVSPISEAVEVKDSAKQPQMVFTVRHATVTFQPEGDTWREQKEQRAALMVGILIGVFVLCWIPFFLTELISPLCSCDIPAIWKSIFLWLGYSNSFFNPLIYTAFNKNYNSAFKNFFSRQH
Description: Serotonin 5-HT5A radioligand binding ([3H]LSD). Conditions: compound at 0.1 μM; read-out: Inhibition of ligand binding, Serotonin 5-HT5A (percent inhibition of specific binding). The method, then: Compounds of the invention were incubated with 1.7 nM [^3H]Lysergic acid diethylamide (LSD) for 60 min at 37° C. […] Receptor proteins were filtered and washed, the filters were counted to determine [^3H]LSD specifically bound.

Assay [6] addresses T6, human recombinant serotonin (5-Hydroxytryptamine) 5-HT2C receptor (Homo sapiens, UniProt P28335).
T6 construct: expressed in transfected cells; host or cells: CHO-K1
T6 sequence (P28335 33-458): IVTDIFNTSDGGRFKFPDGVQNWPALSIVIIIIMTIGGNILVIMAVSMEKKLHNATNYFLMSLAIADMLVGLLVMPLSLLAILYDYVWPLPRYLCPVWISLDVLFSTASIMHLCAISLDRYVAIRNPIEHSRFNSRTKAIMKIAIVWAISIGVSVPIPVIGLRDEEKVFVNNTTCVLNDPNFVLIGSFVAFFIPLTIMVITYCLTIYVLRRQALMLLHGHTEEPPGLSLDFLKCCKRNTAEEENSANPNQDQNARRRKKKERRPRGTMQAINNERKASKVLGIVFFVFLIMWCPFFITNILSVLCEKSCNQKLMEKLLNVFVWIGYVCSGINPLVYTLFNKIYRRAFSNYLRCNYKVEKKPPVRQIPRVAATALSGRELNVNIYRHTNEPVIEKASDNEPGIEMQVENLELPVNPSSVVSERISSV
Description: Serotonin 5-HT2C radioligand binding ([3H]Mesulergine). The note with it: compound at 0.1 μM; read-out: Inhibition of ligand binding, Serotonin 5-HT2C (percent inhibition of specific binding). The protocol:
Compounds of the invention were incubated with 1 nM [^3H]Mesulergine for 60 min at 25° C. Non-specific binding was estimated in the presence of 1 μM Mianserin. Receptor proteins were filtered and washed, the filters were then counted to determine [^3H]Mesulergine specifically bound.

T3 sequence (P28223 whole entry): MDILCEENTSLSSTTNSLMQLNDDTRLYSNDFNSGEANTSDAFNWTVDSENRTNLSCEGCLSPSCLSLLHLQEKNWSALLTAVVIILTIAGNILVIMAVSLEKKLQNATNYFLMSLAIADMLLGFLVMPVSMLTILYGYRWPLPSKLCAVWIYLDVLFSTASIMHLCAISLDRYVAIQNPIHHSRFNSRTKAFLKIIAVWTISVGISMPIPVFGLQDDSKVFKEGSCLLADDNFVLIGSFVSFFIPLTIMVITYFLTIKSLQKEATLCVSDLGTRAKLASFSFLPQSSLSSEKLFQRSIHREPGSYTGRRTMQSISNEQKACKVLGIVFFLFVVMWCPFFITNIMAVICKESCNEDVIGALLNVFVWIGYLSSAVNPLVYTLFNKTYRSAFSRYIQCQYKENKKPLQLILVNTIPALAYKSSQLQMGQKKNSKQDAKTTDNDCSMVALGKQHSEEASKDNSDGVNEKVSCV

Turning to `COc1ccc(-c2cscc2-n2c3c(c4cc(C)ccc42)CN(C)CC3)cc1` [Compound 37], the inhibition at 0.1 µM in assay [1] worked out at 82%; in assay [3] it was 59%; in assay [4] it was 24%; in assay [5], 94%; in assay [6], 81%. The inhibition at 1 µM in assay [2] was determined as 6%.

For `Cc1ccc2c(c1)c1c(n2-c2ccccc2-c2ccc(F)nc2)CCN(C)C1` [Compound No. 84, 5-(2-(6-fluoropyridin-3-yl)phenyl)-2,8-dimethyl-2,3,4,5-tetrahydro-1H-pyrido[4,3-b]indole], the inhibition at 0.1 µM came to 61% in assay [1]; 89% in assay [3]; 20% in assay [4]; 29% in assay [5]; 75% in assay [6]. In assay [2], the inhibition at 1 µM was determined as 26%.

Turning to `Cc1ccc2c(c1)c1c(n2-c2cccc(-c3cnc(N(C)C)nc3)c2)CCN(C)C1` [Compound 42, 5-(3-(2,8-dimethyl-3,4-dihydro-1H-pyrido[4,3-b]indol-5(2H)-yl)phenyl)-N,N-dimethylpyrimidin-2-amine], the inhibition at 0.1 µM in assay [1] is 9%; in assay [3], 62%; in assay [4], 17%; in assay [5], 11%; in assay [6] it was 32%. Further, the inhibition at 1 µM in assay [2] is 0%.

Take `Cc1ccc2c(c1)c1c(n2-c2ccccc2-c2ccc(C)nc2)CCN(C)C1` [Compound 59, 2,8-dimethyl-5-(2-(6-methylpyridin-3-yl)phenyl)-2,3,4,5-tetrahydro-1H-pyrido[4,3-b]indole]: the inhibition at 0.1 µM in assay [1] amounted to 42%; in assay [3], 47%; in assay [4], 17%; in assay [5], 31%; in assay [6], 46%. For the same compound, the inhibition at 1 µM in assay [2] turned out to be 27%.

For `Cc1ccc2c(c1)c1c(n2-c2ccc(-c3cnn(C)c3)cn2)CCN(C)C1` [Compound No. 134, 2,8-dimethyl-5-(5-(1-methyl-1H-pyrazol-4-yl)pyridin-2-yl)-2,3,4,5-tetrahydro-1H-pyrido[4,3-b]indole], the inhibition at 0.1 µM was -2% in assay [1]; 88% in assay [3]; -2% in assay [4]; -4% in assay [5]; 96% in assay [6]. In addition, the inhibition at 1 µM in assay [2] worked out at 6%.

In the case of `Cc1ccc2c(c1)c1c(n2-c2ccc(-c3ccncc3)cn2)CCN(C)C1` [Compound No. 132, 5-(3,4′-bipyridin-6-yl)-2,8-dimethyl-2,3,4,5-tetrahydro-1H-pyrido[4,3-b]indole], the inhibition at 0.1 µM in assay [1] stood at 11%; in assay [3], 83%; in assay [4] it was 2%; in assay [5], 2%; in assay [6], 77%. Further, in assay [2], the inhibition at 1 µM is 3%.

As to `Cc1cc(C)c2c(c1)c1c(n2-c2cccc(-c3ccncc3)c2)CCN(C)C1` [Compound 57, 2,6,8-trimethyl-5-(3-(pyridin-4-yl)phenyl)-2,3,4,5-tetrahydro-1H-pyrido[4,3-b]indole], the inhibition at 0.1 µM in assay [1] came to 3%; in assay [3] it was 70%; in assay [4], 15%; in assay [5], 26%; in assay [6], 28%. The inhibition at 1 µM in assay [2] stood at 45%.

On to `Cc1ccc2c(c1)c1c(n2-c2ccc(-c3cccc4[nH]ncc34)cn2)CCN(C)C1` [Compound No. 147, 5-(5-(1H-indazol-4-yl)pyridin-2-yl)-2,8-dimethyl-2,3,4,5-tetrahydro-1H-pyrido[4,3-b]indole], for which the inhibition at 0.1 µM in assay [1] was 37%; in assay [3] it was 62%; in assay [4] it was 15%; in assay [5] it was 23%; in assay [6], 69%. For the same compound, the inhibition at 1 µM in assay [2] worked out at 8%.

Turning to `Cc1ccc2c(c1)c1c(n2-c2ccc3c(c2)CCN(C=O)C3)CCN(C)C1` [Compound No. 77, 6-(2,8-dimethyl-1,2,3,4-tetrahydro-pyrido[4,3-b]indol-5-yl)-3,4-dihydro-1H-isoquinoline-2-carbaldehyde], the inhibition at 0.1 µM in assay [1] is 20%; in assay [3] it was 36%; in assay [4], 5%; in assay [5], 21%; in assay [6], 51%. Further, the inhibition at 1 µM in assay [2] was found to be 35%.

As for `Cc1ccc2c(c1)c1c(n2-c2cccc(-c3cncc4ccccc34)c2)CCN(C)C1` [Compound No. 67, 5-(3-(isoquinolin-4-yl)phenyl)-2,8-dimethyl-2,3,4,5-tetrahydro-1H-pyrido[4,3-b]indole], the inhibition at 0.1 µM was 1% in assay [1]; 75% in assay [3]; 29% in assay [4]; 39% in assay [5]; 23% in assay [6]. Moreover, the inhibition at 1 µM in assay [2] amounted to 32%.

As for `Cc1ccc2c(c1)c1c(n2-c2cscc2C(=O)N(C)C)CCN(C)C1` [Compound No. 152], the inhibition at 0.1 µM in assay [1] is 6%; in assay [3] it was 31%; in assay [4], 22%; in assay [5] it was 14%; in assay [6], 22%. Further, the inhibition at 1 µM in assay [2] came out at 16%.

Turning to `Cc1ccc2c(c1)c1c(n2-c2cscc2-c2ccc(F)nc2)CCN(C)C1` [Compound 35], the inhibition at 0.1 µM in assay [1] came out at 78%; in assay [3], 82%; in assay [4], 21%; in assay [5], 66%; in assay [6], 74%. Moreover, the inhibition at 1 µM in assay [2] was 3%.

For `Cc1ccc2c(c1)c1c(n2-c2ccc(-c3cccnc3)cn2)CCN(C)C1` [Compound No. 133, 5-(3,3′-bipyridin-6-yl)-2,8-dimethyl-2,3,4,5-tetrahydro-1H-pyrido[4,3-b]indole], the inhibition at 0.1 µM in assay [1] was determined as 21%; in assay [3], 86%; in assay [4] it was 10%; in assay [5] it was 6%; in assay [6], 92%. Besides, in assay [2], the inhibition at 1 µM was 6%.

As for `Cc1ccc2c(c1)c1c(n2-c2cscc2-c2ccc3cnccc3c2)CCN(C)C1` [Compound No. 68], the inhibition at 0.1 µM was 71% in assay [1]; 35% in assay [3]; 18% in assay [4]; 78% in assay [5]; 10% in assay [6]. Besides, the inhibition at 1 µM in assay [2] was found to be 30%.
